The values below are quoted from earlier work in paper PMC9667546, “Selective Inhibition of Bruton’s Tyrosine Kinase by a Designed Covalent Ligand Leads to Potent Therapeutic Efficacy in Blood Cancers Relative to Clinically Used Inhibitors” (ACS Pharmacology & Translational Science, 2022).

Where only a bound is given, the exact number is not on record here.

One data set addresses T1, EGFR (Homo sapiens, UniProt P00533).
T1 construct: host or cells: HEK296T (so in the source)
The settings on record: Table S3 heat map; ref SI 1-19; cited from earlier work.

A further data set addresses BTK (Homo sapiens, UniProt Q06187). On the set-up: purchased Promega Corporation V2941. The following applies: Table S3 heat map; ref SI 1-19; read-out: IC50, BTK; cited from earlier work.
The target in the next data set is T2, JAK3 (Homo sapiens, UniProt P52333).
T2 construct: host or cells: HEK296T (so in the source)
T2 sequence (P52333 whole entry): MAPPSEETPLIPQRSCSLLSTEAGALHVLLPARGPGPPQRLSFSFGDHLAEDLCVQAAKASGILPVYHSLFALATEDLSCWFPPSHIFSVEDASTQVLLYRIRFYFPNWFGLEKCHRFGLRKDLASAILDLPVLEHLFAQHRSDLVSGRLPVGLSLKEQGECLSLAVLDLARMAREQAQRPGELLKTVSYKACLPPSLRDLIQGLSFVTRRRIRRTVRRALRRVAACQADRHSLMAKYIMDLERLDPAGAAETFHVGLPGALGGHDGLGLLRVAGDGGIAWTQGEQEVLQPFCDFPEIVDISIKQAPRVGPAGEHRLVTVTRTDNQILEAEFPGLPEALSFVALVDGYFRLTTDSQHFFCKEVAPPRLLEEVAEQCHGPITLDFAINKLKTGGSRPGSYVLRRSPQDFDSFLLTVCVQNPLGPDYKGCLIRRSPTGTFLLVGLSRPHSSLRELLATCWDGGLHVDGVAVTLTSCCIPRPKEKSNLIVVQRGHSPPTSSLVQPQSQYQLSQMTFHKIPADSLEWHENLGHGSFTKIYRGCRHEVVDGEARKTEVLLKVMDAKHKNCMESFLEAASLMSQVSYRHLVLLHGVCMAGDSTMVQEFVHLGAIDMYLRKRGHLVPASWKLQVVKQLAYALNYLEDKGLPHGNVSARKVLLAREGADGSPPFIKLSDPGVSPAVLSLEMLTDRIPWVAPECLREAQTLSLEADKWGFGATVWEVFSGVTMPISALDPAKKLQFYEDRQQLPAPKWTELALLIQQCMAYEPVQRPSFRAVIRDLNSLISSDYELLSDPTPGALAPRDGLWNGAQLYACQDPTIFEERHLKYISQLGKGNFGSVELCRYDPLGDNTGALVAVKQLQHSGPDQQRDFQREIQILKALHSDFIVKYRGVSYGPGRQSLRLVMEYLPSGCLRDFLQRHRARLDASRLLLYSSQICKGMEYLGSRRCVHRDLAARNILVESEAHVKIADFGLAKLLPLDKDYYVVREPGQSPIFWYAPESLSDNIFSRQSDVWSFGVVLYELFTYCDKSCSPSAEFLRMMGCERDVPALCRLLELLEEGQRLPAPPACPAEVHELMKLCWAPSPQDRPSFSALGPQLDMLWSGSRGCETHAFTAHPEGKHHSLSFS
The following applies: Table S3 heat map; ref SI 1-19; cited from earlier work.

For the next data set, the target named is T3, TXK (Homo sapiens, UniProt P42681).
T3 construct: host or cells: HEK296T (so in the source)
T3 sequence (P42681 1-527): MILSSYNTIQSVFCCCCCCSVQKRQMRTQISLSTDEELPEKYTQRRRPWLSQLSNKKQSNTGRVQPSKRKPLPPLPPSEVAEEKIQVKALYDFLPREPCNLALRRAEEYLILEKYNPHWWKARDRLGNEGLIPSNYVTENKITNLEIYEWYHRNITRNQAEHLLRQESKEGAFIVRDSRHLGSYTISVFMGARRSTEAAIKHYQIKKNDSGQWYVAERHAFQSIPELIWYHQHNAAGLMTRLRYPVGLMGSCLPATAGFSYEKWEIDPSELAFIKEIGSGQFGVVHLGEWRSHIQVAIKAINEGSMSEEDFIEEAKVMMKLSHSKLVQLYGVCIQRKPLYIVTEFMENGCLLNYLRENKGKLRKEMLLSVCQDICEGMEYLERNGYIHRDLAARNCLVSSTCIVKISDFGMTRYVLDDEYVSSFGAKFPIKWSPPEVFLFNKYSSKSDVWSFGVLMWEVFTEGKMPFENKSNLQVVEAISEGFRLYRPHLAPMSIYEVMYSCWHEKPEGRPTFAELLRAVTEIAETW
The following applies: Table S3 heat map; ref SI 1-19; cited from earlier work.

The target of a further data set is T4, ITK (Homo sapiens, UniProt Q08881).
T4 construct: host or cells: HEK296T (so in the source)
T4 sequence (Q08881 1-620): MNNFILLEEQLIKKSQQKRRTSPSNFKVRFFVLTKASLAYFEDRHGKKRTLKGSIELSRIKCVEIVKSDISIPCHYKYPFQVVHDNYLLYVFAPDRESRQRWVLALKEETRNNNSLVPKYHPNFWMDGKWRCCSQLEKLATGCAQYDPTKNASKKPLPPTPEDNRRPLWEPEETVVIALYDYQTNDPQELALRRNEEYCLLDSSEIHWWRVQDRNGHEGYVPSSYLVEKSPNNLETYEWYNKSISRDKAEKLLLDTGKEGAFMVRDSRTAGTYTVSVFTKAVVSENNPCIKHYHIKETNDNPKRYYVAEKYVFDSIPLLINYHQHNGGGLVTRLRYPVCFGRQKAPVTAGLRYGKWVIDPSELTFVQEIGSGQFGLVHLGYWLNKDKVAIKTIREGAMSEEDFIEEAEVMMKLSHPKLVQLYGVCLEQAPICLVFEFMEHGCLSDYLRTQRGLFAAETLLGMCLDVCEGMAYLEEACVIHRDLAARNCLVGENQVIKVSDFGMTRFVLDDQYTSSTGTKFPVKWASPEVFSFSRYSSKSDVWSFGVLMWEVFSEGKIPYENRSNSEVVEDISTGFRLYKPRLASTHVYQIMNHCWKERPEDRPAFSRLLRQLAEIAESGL
The settings on record: Table S3 heat map; ref SI 1-19; cited from earlier work.

In the next data set the test system is Her2. The settings on record: read-out: IC50, Her2; Table S3 heat map; ref SI 1-19; cited from earlier work.
The target of the next data set is T5, TEC (Homo sapiens, UniProt P42680).
T5 construct: host or cells: HEK296T (so in the source)
T5 sequence (P42680 1-631): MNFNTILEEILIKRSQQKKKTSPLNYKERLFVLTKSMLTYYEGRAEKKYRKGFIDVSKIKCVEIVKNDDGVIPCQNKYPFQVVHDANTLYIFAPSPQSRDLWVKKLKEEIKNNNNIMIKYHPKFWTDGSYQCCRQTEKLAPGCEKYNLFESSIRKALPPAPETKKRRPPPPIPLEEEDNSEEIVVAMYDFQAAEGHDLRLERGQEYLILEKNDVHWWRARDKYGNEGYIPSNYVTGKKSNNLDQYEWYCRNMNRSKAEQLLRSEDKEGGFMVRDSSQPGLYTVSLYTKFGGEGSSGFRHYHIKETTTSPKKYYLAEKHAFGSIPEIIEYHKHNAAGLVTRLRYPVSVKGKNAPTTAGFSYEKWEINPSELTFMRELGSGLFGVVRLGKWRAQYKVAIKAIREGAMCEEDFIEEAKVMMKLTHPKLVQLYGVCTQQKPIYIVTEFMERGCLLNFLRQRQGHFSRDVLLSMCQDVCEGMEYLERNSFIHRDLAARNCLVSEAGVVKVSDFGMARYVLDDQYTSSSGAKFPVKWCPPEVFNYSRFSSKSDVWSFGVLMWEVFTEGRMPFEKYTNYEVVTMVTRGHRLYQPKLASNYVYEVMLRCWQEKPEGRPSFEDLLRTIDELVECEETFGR
The following applies: Table S3 heat map; ref SI 1-19; cited from earlier work.

Sequence of BTK (Q06187 whole entry): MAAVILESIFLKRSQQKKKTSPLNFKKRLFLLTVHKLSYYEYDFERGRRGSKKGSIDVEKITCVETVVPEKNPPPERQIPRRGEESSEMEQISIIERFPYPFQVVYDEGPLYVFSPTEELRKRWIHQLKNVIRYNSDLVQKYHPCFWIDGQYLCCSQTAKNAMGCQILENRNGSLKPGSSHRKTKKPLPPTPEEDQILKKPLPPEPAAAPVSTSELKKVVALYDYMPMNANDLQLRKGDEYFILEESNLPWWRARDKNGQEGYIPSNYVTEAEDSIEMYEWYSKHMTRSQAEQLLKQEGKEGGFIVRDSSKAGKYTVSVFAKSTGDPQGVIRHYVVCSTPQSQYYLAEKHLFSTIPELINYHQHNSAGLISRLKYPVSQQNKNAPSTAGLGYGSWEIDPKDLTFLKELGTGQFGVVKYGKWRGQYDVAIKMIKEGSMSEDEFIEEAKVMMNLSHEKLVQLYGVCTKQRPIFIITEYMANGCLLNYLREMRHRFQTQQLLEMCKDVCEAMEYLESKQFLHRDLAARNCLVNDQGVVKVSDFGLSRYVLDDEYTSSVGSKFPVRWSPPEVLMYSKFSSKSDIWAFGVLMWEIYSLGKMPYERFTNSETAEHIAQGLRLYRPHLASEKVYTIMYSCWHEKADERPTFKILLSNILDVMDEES
T1 sequence (P00533 25-1210): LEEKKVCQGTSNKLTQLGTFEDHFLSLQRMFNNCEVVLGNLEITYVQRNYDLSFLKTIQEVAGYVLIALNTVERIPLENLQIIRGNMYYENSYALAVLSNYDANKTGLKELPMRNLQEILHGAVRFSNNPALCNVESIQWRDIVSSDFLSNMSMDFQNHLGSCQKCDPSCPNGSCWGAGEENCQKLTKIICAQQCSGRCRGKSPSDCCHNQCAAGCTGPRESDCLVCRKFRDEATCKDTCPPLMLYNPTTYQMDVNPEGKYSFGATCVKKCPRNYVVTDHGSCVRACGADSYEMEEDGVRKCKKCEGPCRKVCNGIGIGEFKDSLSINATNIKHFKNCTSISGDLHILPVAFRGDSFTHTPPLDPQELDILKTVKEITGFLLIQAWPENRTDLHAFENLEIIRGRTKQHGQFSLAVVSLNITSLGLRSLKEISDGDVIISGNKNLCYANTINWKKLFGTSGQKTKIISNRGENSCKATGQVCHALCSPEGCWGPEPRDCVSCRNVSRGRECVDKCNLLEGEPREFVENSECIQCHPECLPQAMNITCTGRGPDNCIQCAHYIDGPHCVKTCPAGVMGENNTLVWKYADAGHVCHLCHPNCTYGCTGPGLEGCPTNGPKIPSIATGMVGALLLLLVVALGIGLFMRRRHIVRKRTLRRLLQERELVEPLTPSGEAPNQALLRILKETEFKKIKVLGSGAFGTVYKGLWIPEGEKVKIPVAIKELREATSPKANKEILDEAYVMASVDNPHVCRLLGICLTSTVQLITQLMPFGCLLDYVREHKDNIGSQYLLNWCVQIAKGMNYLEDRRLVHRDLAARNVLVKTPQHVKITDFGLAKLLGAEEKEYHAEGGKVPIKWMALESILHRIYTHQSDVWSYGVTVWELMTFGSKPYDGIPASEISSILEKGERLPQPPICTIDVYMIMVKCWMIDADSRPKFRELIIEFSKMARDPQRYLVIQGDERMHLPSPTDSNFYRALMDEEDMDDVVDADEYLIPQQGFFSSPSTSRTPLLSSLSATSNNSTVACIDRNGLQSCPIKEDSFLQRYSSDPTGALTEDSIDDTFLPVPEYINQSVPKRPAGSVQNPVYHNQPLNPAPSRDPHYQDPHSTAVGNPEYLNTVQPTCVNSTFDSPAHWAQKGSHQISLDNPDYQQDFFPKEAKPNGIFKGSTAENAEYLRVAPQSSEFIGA

For `CC#CC(=O)N1CC[C@@H](n2cc(-c3ccc(Oc4c(F)cccc4F)cc3)c3c(N)n[nH]c(=O)c32)C1` [TG-1701], the IC50 on EGFR is 270 nM; at BTK, 3 nM; on JAK3 it was > 3000 nM; at TXK, 136 nM; on ITK it was > 3000 nM; in the data set on Her2, > 3000 nM. The IC50 on TEC was 4 nM.
